Experiments:
[1] = tested on: mPFC slices of AAV-GFP-Tau[R406W] infected mice; experiment: mPFC LTP in mice overexpressing GFP-Tau[R406W]; format: cell-based, mouse; details: bath application of 0.3 μM DP12; 50-60 min after induction
Description: Prefrontal slices (400 μm) were transferred to a submerged-type recording MC membrane chamber (volume 2 ml; Scientific Systems Design Inc., Mississauga, Ontario, Canada) perfused with oxygenated recording ACSF at a flow rate of 4 ml/min and maintained at room temperature (22-25° C.), unless stated otherwise in the “Results”-section given below. Field EPSPs were evoked and recorded using thin-walled glass electrodes (borosilicate glass, wall thickness 0.188, length 100, and outer diameter 1.5 mm, Hilgenberg, Malsfeld, Germany) filled with recording aCSF in 400 μm-thick mPFC slices. […]
Before LTP induction, basal synaptic transmission was recorded in each slice and the relationship between stimulus intensity and fEPSP slope was measured. […] The supramaximal slope was determined by gradually increasing the stimulation intensity until a population spike in the fEPSP became first visible. […]
LTP was induced by application of five trains of theta-burst stimulation (TBS) with an inter-theta-train interval of 20 s (Brennaman et al., 2011). […] For calculation of the LTP level, the mean fEPSP slope was measured between 50-60 min after TBS delivery, and it was then normalized to mean baseline fEPSP slope during 0-10 min before TBS. Stimulus artifacts in representative fEPSP examples in figures were blanked to facilitate the perception of fEPSPs recorded in the mPFC. […]

5×FAD mice = experiment: Recency test (increased difficulty) in 5×FAD mice; format: in vivo, mouse; details: intranasal, 0.5 mg/kg DP12 or equimolar
Description: The recency test comprised of two encoding phases followed by a retrieval phase (modified from Nelson et al., 2011). The interval between the encoding phases was 1 h, and the interval between the second encoding phase and the retrieval phase was 10 min, except for experiments in 5×FAD mice when both intervals were 90 min to make the task more difficult. In the first encoding phase, animals were placed into the open field arena and allowed to explore a pair of identical objects for 10 min. Then, a different pair of identical objects was presented in the second encoding phase (10 min total exploration time). During the retrieval phase, two different objects, one object from each encoding phase, were placed into the apparatus and animals were given 10 min to explore them.
Animals were randomly assigned to treatment groups using a randomized block design to counterbalance differences in age. The time of the day when tests were performed for different animals was also counterbalanced between treatment groups using a randomized block design. All measurements and statistical analyses were performed performed blindly, i.e. the tubes containing drugs/vehicle were coded. Exploration was defined as the animal approaching the object at a distance of less than 2 cm. The animal climbing onto the object with both hind- and forelimbs was not considered as exploration. In the same trial, objects were counterbalanced, and between trials, the placements of novel and familiar objects were changed. The objects used in the novel object recognition test were not employed in the recency test. Novelty detection was evaluated by calculating the discrimination ratio as follows: [novel object time−familiar object time]/[novel object time+familiar object time]×100%. In the recency test, the discrimination ratio was calculated as follows: [least recent object time−most recent object time]/[least object time+most recent object time]×100%. Unreliable measurements (about 10%), when animals spent in total ≤10 s near to both objects, were excluded from analysis.
As the recency test was consistently used for analysis of DP12 effects in other mouse models, it was further investigated whether 13- to 14-month-old 5×FAD mice are impaired in this form of memory. In this series of experiments, the intervals between each session during recency test were increased to 90 min to increase the difficulty to recall the temporal order of the two objects shown in the arena (FIG. 12(A)). […] To verify whether DP12 or avDP10-9OAc may improve cognitive function in the 5×FAD model of AD, these compounds or a vehicle (H2O) were intranasally delivered in the same cohort of 5×FAD mice before multiple recency test sessions (separated by 4 day-interval). The numbers of mice in each treatment group during one session were counterbalanced and each mouse received in a random order both drugs and the vehicle. […] In contrast, vehicle-treated 5×FAD mice explored the two objects equally (FIG. 12(C)).

[2] = 2 hours before test, 90 min intervals

(α(2→8)Neu5Ac)12 [DP12]
rescue of impaired mPFC LTP [1]: fully rescue LTP
exploration of least recent versus most recent object in the retrieval phase (5×FAD mice; [2]): clear preference for the least recently explored object
object discrimination (discrimination ratio) compared to vehicle (5×FAD mice; [2]): significant difference in object discrimination
number of mice showing discrimination more than 20% (5×FAD mice; n=11 5×FAD mice): 10 of 11

Reference: patent publication US20210301038A1, “POLYSIALIC ACID AND DERIVATIVES THEREOF, PHARMACEUTICAL COMPOSITION AND METHOD OF PRODUCING POLYSIALIC ACID” (Medizinische Hochschule Hannover (MHH), priority 2018, published 2021)
